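Dose response: 5 concentrations. Exposure: 48 h. Format: 96-well plates. Endpoint: linear interpolation; highest concentration if not reached. The concentration for full growth arrest is given as TGI.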
Columns and labels:
Test in all cases: NCI-60 cell line screen, 48 h
M14 melanoma = tested on: M14 melanoma
NCI-H460 lung = tested on: NCI-H460 lung
UACC-62 melanoma = tested on: UACC-62 melanoma
IGROV1 ovarian = tested on: IGROV1 ovarian
A549 NSCLC = tested on: A549 NSCLC
NCI/ADR-RES ovarian = tested on: NCI/ADR-RES ovarian
RPMI-8226 leukemia = tested on: RPMI-8226 leukemia
SR leukemia = tested on: SR leukemia
MALME-3M melanoma = tested on: MALME-3M melanoma
HS 578T breast = tested on: HS 578T breast
SF-295 CNS = tested on: SF-295 CNS
KM12 colon = tested on: KM12 colon
SK-MEL-5 melanoma = tested on: SK-MEL-5 melanoma
EKVX NSCLC = tested on: EKVX NSCLC
OVCAR-8 ovarian = tested on: OVCAR-8 ovarian
MDA-MB-435 = tested on: MDA-MB-435
SNB-19 CNS = tested on: SNB-19 CNS
MDA-MB-231 breast = tested on: MDA-MB-231 breast
NCI-H226 lung = tested on: NCI-H226 lung
U251 CNS = tested on: U251 CNS
SN12C renal = tested on: SN12C renal
HOP-62 NSCLC = tested on: HOP-62 NSCLC
NCI-H522 lung = tested on: NCI-H522 lung
UO-31 renal = tested on: UO-31 renal
786-0 renal = tested on: 786-0 renal
MOLT-4 leukemia = tested on: MOLT-4 leukemia
SK-MEL-28 melanoma = tested on: SK-MEL-28 melanoma
T-47D breast = tested on: T-47D breast
HCC-2998 colon = tested on: HCC-2998 colon
A498 renal = tested on: A498 renal
OVCAR-4 ovarian = tested on: OVCAR-4 ovarian
SNB-75 CNS = tested on: SNB-75 CNS
SF-268 CNS = tested on: SF-268 CNS
ACHN renal = tested on: ACHN renal
SW-620 colon = tested on: SW-620 colon
OVCAR-5 ovarian = tested on: OVCAR-5 ovarian
COLO 205 colon = tested on: COLO 205 colon
DU-145 prostate = tested on: DU-145 prostate
CAKI-1 renal = tested on: CAKI-1 renal
LOX IMVI melanoma = tested on: LOX IMVI melanoma
MCF7 breast = tested on: MCF7 breast
TK-10 renal = tested on: TK-10 renal
RXF 393 renal = tested on: RXF 393 renal
HCT-116 colon = tested on: HCT-116 colon
SK-OV-3 ovarian = tested on: SK-OV-3 ovarian
MDA-N = tested on: MDA-N
OVCAR-3 ovarian = tested on: OVCAR-3 ovarian
HCT-15 colon = tested on: HCT-15 colon
SK-MEL-2 melanoma = tested on: SK-MEL-2 melanoma
SF-539 CNS = tested on: SF-539 CNS
PC-3 prostate = tested on: PC-3 prostate
CCRF-CEM leukemia = tested on: CCRF-CEM leukemia
NCI-H23 lung = tested on: NCI-H23 lung
HT29 colon = tested on: HT29 colon
K-562 leukemia = tested on: K-562 leukemia
UACC-257 melanoma = tested on: UACC-257 melanoma
HOP-92 NSCLC = tested on: HOP-92 NSCLC
HL-60(TB) leukemia = tested on: HL-60(TB) leukemia

## FC1(F)[Se]C2C3CCC(C3)C2C1(F)F (centres undefined)
M14 melanoma
  TGI: > 100 µM
NCI-H460 lung
  TGI: > 100 µM
UACC-62 melanoma
  TGI: > 100 µM
IGROV1 ovarian
  TGI: > 100 µM
A549 NSCLC
  TGI: > 100 µM
NCI/ADR-RES ovarian
  TGI: > 100 µM
RPMI-8226 leukemia
  TGI: > 100 µM
SR leukemia
  TGI: > 100 µM
MALME-3M melanoma
  TGI: > 100 µM
HS 578T breast
  TGI: > 100 µM
SF-295 CNS
  TGI: > 100 µM
KM12 colon
  TGI: > 100 µM
SK-MEL-5 melanoma
  TGI: > 100 µM
EKVX NSCLC
  TGI: > 100 µM
OVCAR-8 ovarian
  TGI: > 100 µM
MDA-MB-435
  TGI: > 100 µM
SNB-19 CNS
  TGI: > 100 µM
MDA-MB-231 breast
  TGI: > 100 µM
NCI-H226 lung
  TGI: > 100 µM
U251 CNS
  TGI: > 100 µM
SN12C renal
  TGI: > 100 µM
HOP-62 NSCLC
  TGI: > 100 µM
NCI-H522 lung
  TGI: > 100 µM
UO-31 renal
  TGI: > 100 µM
786-0 renal
  TGI: > 100 µM
MOLT-4 leukemia
  TGI: > 100 µM
SK-MEL-28 melanoma
  TGI: > 100 µM
T-47D breast
  TGI: > 100 µM
HCC-2998 colon
  TGI: > 100 µM
A498 renal
  TGI: > 100 µM
OVCAR-4 ovarian
  TGI: > 100 µM
SNB-75 CNS
  TGI: > 100 µM
SF-268 CNS
  TGI: > 100 µM
ACHN renal
  TGI: > 100 µM
SW-620 colon
  TGI: > 100 µM
OVCAR-5 ovarian
  TGI: > 100 µM
COLO 205 colon
  TGI: > 100 µM
DU-145 prostate
  TGI: > 100 µM
CAKI-1 renal
  TGI: > 100 µM
LOX IMVI melanoma
  TGI: > 100 µM
MCF7 breast
  TGI: > 100 µM
TK-10 renal
  TGI: > 100 µM
RXF 393 renal
  TGI: > 100 µM
HCT-116 colon
  TGI: > 100 µM
SK-OV-3 ovarian
  TGI: > 100 µM
MDA-N
  TGI: > 100 µM
OVCAR-3 ovarian
  TGI: > 100 µM
HCT-15 colon
  TGI: > 100 µM
SK-MEL-2 melanoma
  TGI: > 100 µM
SF-539 CNS
  TGI: > 100 µM
PC-3 prostate
  TGI: > 100 µM

## COc1ccccc1Nc1nc2c([nH]1)c(=O)n(C)c(=O)n2C
M14 melanoma
  TGI: > 10 µM
UACC-62 melanoma
  TGI: > 10 µM
IGROV1 ovarian
  TGI: > 10 µM
A549 NSCLC
  TGI: > 10 µM
CCRF-CEM leukemia
  TGI: > 10 µM
NCI-H23 lung
  TGI: > 10 µM
RPMI-8226 leukemia
  TGI: > 10 µM
SR leukemia
  TGI: > 10 µM
HT29 colon
  TGI: > 10 µM
MALME-3M melanoma
  TGI: > 10 µM
K-562 leukemia
  TGI: > 10 µM
SF-295 CNS
  TGI: > 10 µM
KM12 colon
  TGI: > 10 µM
SK-MEL-5 melanoma
  TGI: > 10 µM
EKVX NSCLC
  TGI: > 10 µM
UACC-257 melanoma
  TGI: > 10 µM
OVCAR-8 ovarian
  TGI: > 10 µM
MDA-MB-435
  TGI: > 10 µM
HOP-92 NSCLC
  TGI: > 10 µM
MDA-MB-231 breast
  TGI: > 10 µM
SN12C renal
  TGI: > 10 µM
HOP-62 NSCLC
  TGI: > 10 µM
HL-60(TB) leukemia
  TGI: > 10 µM
786-0 renal
  TGI: > 10 µM
MOLT-4 leukemia
  TGI: > 10 µM
SK-MEL-28 melanoma
  TGI: > 10 µM
T-47D breast
  TGI: > 10 µM
HCC-2998 colon
  TGI: > 10 µM
OVCAR-4 ovarian
  TGI: > 10 µM
SNB-75 CNS
  TGI: > 10 µM
SF-268 CNS
  TGI: > 10 µM
SW-620 colon
  TGI: > 10 µM
COLO 205 colon
  TGI: > 10 µM
DU-145 prostate
  TGI: > 10 µM
CAKI-1 renal
  TGI: > 10 µM
LOX IMVI melanoma
  TGI: > 10 µM
MCF7 breast
  TGI: > 10 µM
TK-10 renal
  TGI: > 10 µM
RXF 393 renal
  TGI: > 10 µM
SK-OV-3 ovarian
  TGI: > 10 µM
MDA-N
  TGI: > 10 µM
HCT-15 colon
  TGI: > 10 µM
PC-3 prostate
  TGI: > 10 µM

From PubChem BioAssay (NCI)
